# Measured values as given in US4822800A (Ortho Pharmaceutical Corporation, priority 1986, dated 1989).
# Read-outs that look alike come from different tables or passages of the source.
# Experiments:
# adult mongrel dogs [1] = assay: acute in vivo cardiotonic activity in anesthetized dogs; set-up: species or system dog (adult mongrel); conditions: Canis lupus familiaris, cardiotonic, relative to controls; for change in vivo at 1.875 mg/kg: dose 1.875 mg/kg intravenous; for change in vivo at 0.375 mg/kg: dose 0.375 mg/kg intravenous; for change in vivo at 0.125 mg/kg: dose 0.125 mg/kg intravenous; for change in vivo at 1.87 mg/kg: dose 1.87 mg/kg intravenous; for change in vivo at 0.875 mg/kg: dose 0.875 mg/kg intravenous
# Method: The acute in vivo cardiotonic activity of compounds prepared according to the present invention was determined according to a modification of the procedure described by Alousi et al., Circ. Res., 45, 666 (1979).
# In particular, adult mongrel dogs were anesthetized with sodium pentobarbital and were artificially respired. Arterial pressure was monitored via a femoral artery, and the pulse pressure was used to trigger a cardiotachometer for heart rate. Left ventricular pressure was determined with a Millar catheter, and dP/dt (the change in ventricular pressure with time) was derived. Cardiac output was determined by measuring ascending aortic blood flow with an electromagnetic flow probe, and myocardial contractile force was measured with a Walton Brodie strain gauge sutured to the right ventricle. Lead II EKG was also recorded.
# A standard dose (10 μg/kg/min) of dopamine was administered to assess myocardial responsiveness.
# Compounds of the invention were administered by intravenous infusion or bolus […] administration, and the effects on cardiovascular parameters were determined.
# Dose related effects of the test compound on blood pressure (BP), heart rate (HR), maximum change in left ventricular pressure with time (dP/dt max),% change in cardiac force (CF) and the increase in mean arterial blood pressure relative to controls (MABP) were compared to pretreatment control values, expressed as a% change and rated for activity.
# adult mongrel dogs [2] = assay: renal vasodilating activity in anesthetized dogs; assay type: in vivo, dog (adult mongrel); conditions: Canis lupus familiaris, renal vasodilator, relative to controls; for change in vivo at 1.2 mg/kg: dose 1.2 mg/kg intravenous; for change in vivo at 6.2 mg/kg: dose 6.2 mg/kg intravenous; for change in vivo at 0.2 mg/kg: dose 0.2 mg/kg intravenous; for change in vivo at 13.9 mg/kg / change in vivo at up to 13.9 mg/kg: dose 13.9 mg/kg intravenous
# Method: Goldberg et al, J. Pharmacol. Exp. Ther., 163, 188 (1968), performed an investigation of the structural requirements for dopamine-like renal vasodilation of phenethylamines and apomorphine. The following procedure is a variation of the assay described in that report.
# Adult mongrel dogs were anesthetized and surgically prepared for electromagnetic measurement of renal artery blood flow. A carotid artery was cannulated for measuring arterial blood pressure, and drugs were administered intravenously. Heart rate was monitored with a cardiotachometer. Renal vascular resistance was calculated as the ratio of mean arterial blood pressure/renal artery blood flow. Dopamine was infused intravenously at 3 μg/kg/min for ten minutes (at an infusion rate of about 1 ml/min) to determine responsiveness of each dog to renal dopamine receptor stimulation. Cumulative dose-response data were obtained by infusing a compound of this invention at progressively increasing (usually three-fold) infusion rates, each dose being infused for five minutes. The maximum % increase from pre-drug control in renal artery blood flow (or a decrease in renal vascular resistance) was determined for each infusion dose.
# RBF values are percent change in renal blood flow. RVR values are percent change in renal vascular resistance. MABP and HR are percent changes in mean arterial blood pressure and heart rate, respectively, relative to controls.
# [3] = read-out: MABP (mean arterial blood pressure)
# [4] = read-out: dP/dt (maximum change left ventricular pressure with time)
# [5] = read-out: RBF (renal blood flow)
# [6] = read-out: RVR (renal vascular resistance)
smiles,measurement,setting,value
Cc1nc(O)c(Cl)c2cc3c(cc12)OCO3 [AG],change in vivo at 1.875 mg/kg,adult mongrel dogs [1]; read-out: CF (cardiac force),88%
same,change in vivo at 1.875 mg/kg,adult mongrel dogs [1]; read-out: HR (heart rate),28%
same,change in vivo at 1.875 mg/kg,adult mongrel dogs [1]; [3],-22%
same,change in vivo at 1.875 mg/kg,adult mongrel dogs [1]; [4],51%
same,change in vivo at 1.2 mg/kg,adult mongrel dogs [2]; read-out: HR (heart rate),27%
same,change in vivo at 1.2 mg/kg,adult mongrel dogs [2]; [3],-27%
same,change in vivo at 1.2 mg/kg,adult mongrel dogs [2]; [5],10%
same,change in vivo at 1.2 mg/kg,adult mongrel dogs [2]; [6],-34%
COc1cc2c(C)nc(O)c(CC(C)C)c2cc1OC [AJ],change in vivo at 1.875 mg/kg,adult mongrel dogs [1]; read-out: CF (cardiac force),39%
same,change in vivo at 1.875 mg/kg,adult mongrel dogs [1]; read-out: HR (heart rate),10%
same,change in vivo at 1.875 mg/kg,adult mongrel dogs [1]; [3],-6%
same,change in vivo at 1.875 mg/kg,adult mongrel dogs [1]; [4],25%
same,change in vivo at 6.2 mg/kg,adult mongrel dogs [2]; read-out: HR (heart rate),2%
same,change in vivo at 6.2 mg/kg,adult mongrel dogs [2]; [3],4%
same,change in vivo at 6.2 mg/kg,adult mongrel dogs [2]; [5],9%
same,change in vivo at 6.2 mg/kg,adult mongrel dogs [2]; [6],-4%
CCOc1cc2c(C)nc(O)cc2cc1OC [AK],change in vivo at 0.375 mg/kg,adult mongrel dogs [1]; read-out: CF (cardiac force),114%
same,change in vivo at 0.375 mg/kg,adult mongrel dogs [1]; read-out: HR (heart rate),13%
same,change in vivo at 0.375 mg/kg,adult mongrel dogs [1]; [3],-5%
same,change in vivo at 0.375 mg/kg,adult mongrel dogs [1]; [4],39%
same,change in vivo at 0.2 mg/kg,adult mongrel dogs [2]; read-out: HR (heart rate),10%
same,change in vivo at 0.2 mg/kg,adult mongrel dogs [2]; [3],-2%
same,change in vivo at 0.2 mg/kg,adult mongrel dogs [2]; [5],10%
same,change in vivo at 0.2 mg/kg,adult mongrel dogs [2]; [6],-11%
CCOc1cc2cnc(O)cc2cc1OC [AQ],change in vivo at 1.2 mg/kg,adult mongrel dogs [2]; read-out: HR (heart rate),16%
same,change in vivo at 1.2 mg/kg,adult mongrel dogs [2]; [3],0%
same,change in vivo at 1.2 mg/kg,adult mongrel dogs [2]; [5],13%
same,change in vivo at 1.2 mg/kg,adult mongrel dogs [2]; [6],-12%
CCOc1cc2c(C)nc(O)c(CC)c2cc1OC [AS],change in vivo at 0.125 mg/kg,adult mongrel dogs [1]; read-out: CF (cardiac force),78%
same,change in vivo at 0.125 mg/kg,adult mongrel dogs [1]; read-out: HR (heart rate),8%
same,change in vivo at 0.125 mg/kg,adult mongrel dogs [1]; [3],-10%
same,change in vivo at 0.125 mg/kg,adult mongrel dogs [1]; [4],49%
same,change in vivo at 6.2 mg/kg,adult mongrel dogs [2]; read-out: HR (heart rate),2%
same,change in vivo at 6.2 mg/kg,adult mongrel dogs [2]; [3],-1%
same,change in vivo at 6.2 mg/kg,adult mongrel dogs [2]; [5],9%
same,change in vivo at 6.2 mg/kg,adult mongrel dogs [2]; [6],-11%
COc1cc(Br)c2cc(O)nc(C)c2c1OC [AU],change in vivo at 6.2 mg/kg,adult mongrel dogs [2]; read-out: HR (heart rate),-3%
same,change in vivo at 6.2 mg/kg,adult mongrel dogs [2]; [3],0%
same,change in vivo at 6.2 mg/kg,adult mongrel dogs [2]; [5],20%
same,change in vivo at 6.2 mg/kg,adult mongrel dogs [2]; [6],-10%
COc1cc2c(C)nc(O)c(C(=O)NN)c2cc1OC [AV],change in vivo at 1.87 mg/kg,adult mongrel dogs [1]; read-out: CF (cardiac force),89%
same,change in vivo at 1.87 mg/kg,adult mongrel dogs [1]; read-out: HR (heart rate),14%
same,change in vivo at 1.87 mg/kg,adult mongrel dogs [1]; [3],-2%
same,change in vivo at 1.87 mg/kg,adult mongrel dogs [1]; [4],34%
same,change in vivo at 1.2 mg/kg,adult mongrel dogs [2]; read-out: HR (heart rate),1%
same,change in vivo at 1.2 mg/kg,adult mongrel dogs [2]; [3],5%
same,change in vivo at 1.2 mg/kg,adult mongrel dogs [2]; [5],22%
same,change in vivo at 1.2 mg/kg,adult mongrel dogs [2]; [6],-13%
CCOc1cc2cc(O)nc(C)c2cc1OC [AW],change in vivo at 6.2 mg/kg,adult mongrel dogs [2]; read-out: HR (heart rate),59%
same,change in vivo at 6.2 mg/kg,adult mongrel dogs [2]; [3],-17%
same,change in vivo at 6.2 mg/kg,adult mongrel dogs [2]; [5],20%
same,change in vivo at 6.2 mg/kg,adult mongrel dogs [2]; [6],-34%
Cc1nc(O)cc2cc(O)c(O)cc12 [Compound A],change in vivo at 13.9 mg/kg,adult mongrel dogs [2]; read-out: HR (heart rate),14%
same,change in vivo at 13.9 mg/kg,adult mongrel dogs [2]; [3],-9%
same,change in vivo at 13.9 mg/kg,adult mongrel dogs [2]; [5],30%
same,change in vivo at up to 13.9 mg/kg,adult mongrel dogs [2]; [6],-30%
"COc1ccc2cc(O)nc(C)c2c1OC [Compound C, 3-Hydroxy-7,8-dimethoxy-1-methylisoquinoline]",change in vivo at 0.875 mg/kg,adult mongrel dogs [1]; read-out: CF (cardiac force),62%
same,change in vivo at 0.875 mg/kg,adult mongrel dogs [1]; read-out: HR (heart rate),10%
same,change in vivo at 0.875 mg/kg,adult mongrel dogs [1]; [3],-6%
same,change in vivo at 0.875 mg/kg,adult mongrel dogs [1]; [4],51%
"COc1cc2c(C)nc(O)c(CCC(=O)O)c2cc1OC [Compound E, 4-β-Carboxyethyl-3-hydroxy-6,7-dimethoxy-1-methylisoquinoline]",change in vivo at 1.875 mg/kg,adult mongrel dogs [1]; read-out: CF (cardiac force),75%
same,change in vivo at 1.875 mg/kg,adult mongrel dogs [1]; read-out: HR (heart rate),5%
same,change in vivo at 1.875 mg/kg,adult mongrel dogs [1]; [3],-3%
same,change in vivo at 1.875 mg/kg,adult mongrel dogs [1]; [4],42%
same,change in vivo at 13.9 mg/kg,adult mongrel dogs [2]; read-out: HR (heart rate),11%
same,change in vivo at 13.9 mg/kg,adult mongrel dogs [2]; [3],-7%
same,change in vivo at 13.9 mg/kg,adult mongrel dogs [2]; [5],7%
same,change in vivo at up to 13.9 mg/kg,adult mongrel dogs [2]; [6],-13%
Cc1nc(O)cc2ccc(O)c(O)c12 [Compound I],change in vivo at 13.9 mg/kg,adult mongrel dogs [2]; read-out: HR (heart rate),38%
same,change in vivo at 13.9 mg/kg,adult mongrel dogs [2]; [3],-4%
same,change in vivo at 13.9 mg/kg,adult mongrel dogs [2]; [5],35%
same,change in vivo at up to 13.9 mg/kg,adult mongrel dogs [2]; [6],-29%
"COc1cc2c(C)nc(O)c(CCC(=O)OC(C)C)c2cc1OC [Compound R, 4-β-Carboisopropoxyethyl-3-hydroxy-6,7-dimethoxy-1-methylisoquinoline]",change in vivo at 1.875 mg/kg,adult mongrel dogs [1]; read-out: CF (cardiac force),22%
same,change in vivo at 1.875 mg/kg,adult mongrel dogs [1]; read-out: HR (heart rate),3%
same,change in vivo at 1.875 mg/kg,adult mongrel dogs [1]; [3],-6%
same,change in vivo at 1.875 mg/kg,adult mongrel dogs [1]; [4],15%
COC(=O)CCc1c(O)nc(C)c2cc3c(cc12)OCO3 [L],change in vivo at 0.875 mg/kg,adult mongrel dogs [1]; read-out: CF (cardiac force),131%
same,change in vivo at 0.875 mg/kg,adult mongrel dogs [1]; read-out: HR (heart rate),38%
same,change in vivo at 0.875 mg/kg,adult mongrel dogs [1]; [3],-21%
same,change in vivo at 0.875 mg/kg,adult mongrel dogs [1]; [4],118%
CCCc1nc(O)c(CCC(=O)OC)c2cc(OC)c(OC)cc12 [M],change in vivo at 1.875 mg/kg,adult mongrel dogs [1]; read-out: CF (cardiac force),17%
same,change in vivo at 1.875 mg/kg,adult mongrel dogs [1]; read-out: HR (heart rate),2%
same,change in vivo at 1.875 mg/kg,adult mongrel dogs [1]; [3],-4%
same,change in vivo at 1.875 mg/kg,adult mongrel dogs [1]; [4],19%
COC(=O)CCc1c(O)nc(C(C)C)c2cc(OC)c(OC)cc12 [P],change in vivo at 1.875 mg/kg,adult mongrel dogs [1]; read-out: CF (cardiac force),15%
same,change in vivo at 1.875 mg/kg,adult mongrel dogs [1]; read-out: HR (heart rate),7%
same,change in vivo at 1.875 mg/kg,adult mongrel dogs [1]; [3],3%
same,change in vivo at 1.875 mg/kg,adult mongrel dogs [1]; [4],17%
CCOC(=O)CCc1c(O)nc(C)c2cc(OC)c(OC)cc12 [S],change in vivo at 0.875 mg/kg,adult mongrel dogs [1]; read-out: CF (cardiac force),60%
same,change in vivo at 0.875 mg/kg,adult mongrel dogs [1]; read-out: HR (heart rate),8%
same,change in vivo at 0.875 mg/kg,adult mongrel dogs [1]; [3],-4%
same,change in vivo at 0.875 mg/kg,adult mongrel dogs [1]; [4],20%
COc1cc2c(C)nc(O)c(CCC(=O)OC3CCCC3)c2cc1OC [T],change in vivo at 0.875 mg/kg,adult mongrel dogs [1]; read-out: CF (cardiac force),23%
same,change in vivo at 0.875 mg/kg,adult mongrel dogs [1]; read-out: HR (heart rate),9%
same,change in vivo at 0.875 mg/kg,adult mongrel dogs [1]; [3],-3%
same,change in vivo at 0.875 mg/kg,adult mongrel dogs [1]; [4],29%
COC(=O)CCc1c(O)ncc2cc3c(cc12)OCO3 [U],change in vivo at 1.875 mg/kg,adult mongrel dogs [1]; read-out: CF (cardiac force),26%
same,change in vivo at 1.875 mg/kg,adult mongrel dogs [1]; read-out: HR (heart rate),6%
same,change in vivo at 1.875 mg/kg,adult mongrel dogs [1]; [3],0%
same,change in vivo at 1.875 mg/kg,adult mongrel dogs [1]; [4],28%
CNC(=O)CCc1c(O)nc(C)c2cc(OC)c(OC)cc12 [X],change in vivo at 0.875 mg/kg,adult mongrel dogs [1]; read-out: CF (cardiac force),40%
same,change in vivo at 0.875 mg/kg,adult mongrel dogs [1]; read-out: HR (heart rate),4%
same,change in vivo at 0.875 mg/kg,adult mongrel dogs [1]; [3],-5%
same,change in vivo at 0.875 mg/kg,adult mongrel dogs [1]; [4],24%
